Experimental findings from US20100310563A1, “METHODS FOR TREATING INDUCED CELLULAR PROLIFERATIVE DISORDERS” (priority 2007, published 2010) are described below.

The subject of the test is phosphorylated JAK2 in GFP positive peripheral blood granulocytes of the JAK2V617F mouse. Nature of the test: FACS analysis of intracellular JAK2 phosphorylation in peripheral blood granulocytes. The test is classed as cell-based. The note with it: with IL-3 and G-CSF stimulation for 60 minutes, GFP-positive granulocytes of a JAK2V617F mouse, FIG. 4B bottom. How it is done: White cells from bone marrow and spleen were resuspended in staining buffer (BD Biosciences). Aliquots of 1×10^6 cells were stained for 20 minutes with conjugated monoclonal antibodies. Cells were washed in staining buffer and analyzed by FACS. For FACS analysis of intracellular JAK2 phosphorylation, peripheral blood of one JAK2V617F mouse and three normal BALB/c mice were collected. WBC from normal BALB/c mice were pooled together. Cells were split into three aliquots and resuspended in RPMI 1640 (Life Technologies) containing 0.5% BSA and incubated for 15 hours. Following incubation, one aliquot was stimulated with 10 ng/mL IL-3 plus 10 ng/mL granulocyte colonystimulating factor (G-CSF; StemCell) and second aliquot was stimulated with 10 ng/mL IL3, 10 ng/mL G-CSF, and 10 Amol/L AG-490 (Calbiochem) for 60 minutes and third aliquot was left unstimulated. Cells ([…]) were resuspended in 50 AL staining buffer (1% BSA and 0.1% sodium azide in PBS) and permeabilized using Fix&Perm cell permeabilization kit (Caltag Laboratories, Burlingame, Calif. and An der Grub, Vienna, Austria). The granulocyte population was selected by forward and side scatter
To test if the mutant JAK2V617F kinase in murine leukocytes is constitutively active, peripheral blood granulocytes was analyzed by FACS for phosphorylated JAK2. […]

Regarding `N#C/C(=C/c1ccc(O)c(O)c1)C(=O)NCc1ccccc1` [AG490], the “phosphorylated JAK2 levels” value was “reduced phosphorylated JAK2 levels below baseline”.
